Marks after values point to notes of the source that are not given here.
Assays:
OX2R [1] = biological target: T1, OX2R (Homo sapiens, UniProt O43614); assay: OX2R occupancy, ex vivo radioligand-binding displacement in transgenic rats expressing human OX2R; parameters: from tissue; host or cells: brain homogenate of transgenic rats expressing hOX2R under the rat enolase promoter; species or system transgenic rat; conditions: satellite rats, 100 mg/kg, treatment at onset of inactive phase
T1 sequence (O43614 1-444): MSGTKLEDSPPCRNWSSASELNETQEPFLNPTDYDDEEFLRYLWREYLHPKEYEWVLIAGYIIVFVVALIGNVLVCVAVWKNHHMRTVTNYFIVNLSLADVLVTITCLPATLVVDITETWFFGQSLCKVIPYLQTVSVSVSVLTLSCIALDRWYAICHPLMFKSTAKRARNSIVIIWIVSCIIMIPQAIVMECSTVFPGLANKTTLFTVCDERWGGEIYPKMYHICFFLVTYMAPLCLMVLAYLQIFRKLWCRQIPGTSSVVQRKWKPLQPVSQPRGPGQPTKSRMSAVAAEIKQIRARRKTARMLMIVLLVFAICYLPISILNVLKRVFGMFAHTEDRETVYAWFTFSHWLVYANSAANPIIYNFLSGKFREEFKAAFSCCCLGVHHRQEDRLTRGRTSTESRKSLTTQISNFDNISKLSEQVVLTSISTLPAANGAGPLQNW
Excerpt: Frozen tissue was weighed and thawed coincident with homogenization.

[2] = Plasma and CSF compound levels in satellite rats; conditions: rat, in vivo, 100 mg/kg
Protocol: Separately, the relationship between OX2R occupancy relative to plasma exposure was determined by administering DORA-12 intravenously (i.v.) over a range of doses to transgenic rats expressing human OX2R to determine a full occupancy curve over a wide range of plasma concentrations in order to define the maximal occupancy against which raw occupancy values could be normalized. This relationship was then used to determine the OX2R occupancy in PSG experiments from measured plasma concentrations.
Occupancy of human OX2R in transgenic rats expressing the receptor via the rat enolase promoter was performed ex vivo in radioligand-binding-displacement assays essentially as previously described with minor modifications. To determine the relationship between OX2R occupancy for a given compound over a full range of plasma and CSF concentrations, hOX2R-expressing rats were dosed i.v. with compound. Immediately following 30 min of i.v. administration, animals were anesthetized, sacrificed, and CSF, blood, and brain tissue were harvested and frozen for analysis. Frozen tissue was weighed and thawed coincident with homogenization. The homogenate was pelleted at 21,000 × g for 1 min and the pellet was resuspended. […] Non-specific binding was determined by the addition of 1000-fold excess unlabeled ligand. Experimental (dosed)-specific binding was compared with control (vehicle-dosed) binding ([specific total counts minus specific experimental counts]/specific total counts × 100 = percent occupancy). Raw occupancy values determined in this manner over a range of plasma and CSF values were then used to construct a normalized curve where the theoretical maximum occupancy value was defined as 100% and occupancies relative to plasma or CSF values were fit to a […] (hyperbola) curve (GraphPad Prism, San Diego, CA, USA). […] In separate experiments, plasma, CSF, and brain tissue was collected at time points following dosing to directly measure compound levels and corresponding OX2R occupancies at these times. Resulting occupancy relative to measured plasma levels of compound was fit to a normalized binding curve as described previously.

Orexin 2 receptor = biological target: T2, Orexin 2 receptor (Homo sapiens, UniProt O43614); assay: Orexin 2 receptor binding kinetics; conditions: for T1/2 ON (binding half-life): almorexant applied 3-fold above its Kd (value an underestimate); for koff: read-out: KOFF (dissociation constant)
T2 sequence (O43614 1-444): T1 sequence (O43614 1-444)

rats = assay: Rat telemetry polysomnography (time in active wake and sleep stages); type: in vivo; conditions: 100 mg/kg
Protocol: The mean time spent in sleep stages was determined in radio-telemetry-implanted mice, rats, dogs, and rhesus monkeys as first described by Renger and colleagues and subsequently by Winrow and colleagues with minor modifications. For baseline studies, recordings were taken continuously from unperturbed mice, rats, dogs, and monkeys for 6, 6, 10, or 5 days, respectively, and the mean time spent in all sleep stages in 30-min intervals were averaged and plotted onto a single 24-h period (Figure 1). Almorexant is a DORA [43] that was previously in clinical development for the treatment of insomnia. The clinical development program for almorexant was terminated in early 2011. […] In all cases, mean time in active wake, quiet wake, SWS, and REM sleep was determined for each 30-min interval for 3 days of each condition and averaged onto a single 24-h period. […] Statistical differences in mean time spent in active wake, quiet wake, SWS, and REM sleep between vehicle- and compound-treated groups at 30-min time points were determined by a linear mixed-effects model applied t-test.

OX2R [3] = biological target: T3, OX2R (Rattus norvegicus, UniProt P56719); parameters: method as in earlier work; conditions: ref 29 (Dugovic et al. 2009); cited from earlier work
T3 sequence (P56719 1-460): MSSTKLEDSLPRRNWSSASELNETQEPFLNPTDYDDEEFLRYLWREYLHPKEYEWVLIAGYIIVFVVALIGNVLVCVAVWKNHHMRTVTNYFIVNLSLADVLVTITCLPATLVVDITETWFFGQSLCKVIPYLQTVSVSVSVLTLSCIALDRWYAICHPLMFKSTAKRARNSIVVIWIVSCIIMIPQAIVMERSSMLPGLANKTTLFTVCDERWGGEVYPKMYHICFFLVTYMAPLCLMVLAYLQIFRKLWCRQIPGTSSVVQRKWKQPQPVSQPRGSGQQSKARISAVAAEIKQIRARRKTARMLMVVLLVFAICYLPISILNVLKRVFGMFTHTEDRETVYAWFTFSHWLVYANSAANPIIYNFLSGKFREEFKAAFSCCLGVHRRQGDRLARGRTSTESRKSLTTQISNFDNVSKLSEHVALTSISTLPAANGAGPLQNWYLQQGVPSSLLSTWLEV

rhesus monkeys [4] = assay: Monkey Delayed Match to Sample (DMS) task; type: in vivo; conditions: 10 mg/kg p.o., versus vehicle
Excerpt: All cognition testing occurred in the animal’s home cage equipped with a touchscreen. Each DMS trial was initiated with a single ‘sample’ image (150 × 200 pixels: 1.8 inches × 2.3 inches) in one of eight colors presented at the center of a touchscreen. Evaluation began when the monkey touched the sample image, at which point the screen became blank for a retention period. Following the retention period, four choice images (150 × 200 pixels) were presented, one in each corner of the screen. One of the four choice images matched the color of the sample image, whereas the three remaining ‘distractor’ images were drawn from the pool of remaining colors. A reinforcer was provided when the monkey touched the choice image that matched the color of the sample image. […] Test sessions comprised 96 trials or lasted for up to 45 min. […] Response latencies to sample and choice images were also recorded. Values reported reflect the proportion of correct responses collapsed over all retention intervals. Differences from vehicle were examined using repeated measures ANOVA.

rhesus monkeys [5] = assay: Monkey Serial Choice Reaction Time (SCRT) task; type: in vivo; conditions: 10 mg/kg p.o., versus vehicle, 10 mg/kg
Excerpt: Each SCRT trial was initiated with the appearance of 10 blue square ‘target’ images evenly distributed at 3-inch intervals around the perimeter of a touchscreen presented together with a centrally located circular ‘centering’ image (1.4 inch diameter circle). The task began with the monkey touching the centering image, which then turned gray. The monkey was then required to touch the centering image continuously throughout a variable pre-cue interval of 0.25-7.5 s. On completion of the pre-cue interval, one of the blue target images was cued by turning red for one of four cue durations before turning back to blue. To obtain a reward, the monkey was required to touch the target image that had been ‘cued’ red within a 5 s limited hold period. […] On completion of the trial, an inter-trial interval of 2 s was initiated prior to the next trial. […] If the monkey initiated a trial but removed its hand from the touchscreen prior to the appearance of the cue, the trial was terminated and the screen was blanked during a 2 s inter-trial interval. Sessions were terminated after 20 min. Cue location and duration were pseudo-randomly assigned. Cue duration and the target size were titrated for each subject on the basis of performance during previous baseline sessions to yield a performance of 60–80% correct responses for the trials of the shortest cue duration. The briefest cue duration varied from 0.04–0.1 s and the cues varied in size from 0.2–0.7 inches, although each cue had the same touch-sensitive area of 1.75 inches. Values reported in the current study reflect the proportion of correct responses to targets after cues of the shortest duration only.

rhesus monkeys [6] = conditions: sleep-promoting doses; cited from earlier work
rhesus monkeys [7] = assay: Rhesus monkey polysomnography (active wake); type: in vivo; conditions: 10 mg/kg p.o. 2 h before lights out, 10 mg/kg
Protocol: Animals were fed on a calorie-controlled diet of laboratory chow supplemented with fruit and vegetables. Water was available ad libitum with the exception of those monkeys trained to perform cognitive tasks, for which access was restricted for up to 4 h prior to and during cognitive testing. Treatment occurred at 14:40 (Zeitgeber time [ZT] 10:10) in a balanced 1-day cross-over design: 1 day of drug or vehicle followed by 6 days of baseline followed by 1 day of vehicle or drug. Cognition tasks were scheduled for next-day evaluation as described below. Sleep/wake architecture was scored according to vigilance state (active wake, quiet wake, delta sleep I, delta sleep II, and REM sleep) at 30-minute intervals and analyzed as previously described. Spectral analysis of continuous EEG was quantified between vehicle and compound after binning continuous frequencies into canonical frequency bands (reported herein: Delta, 0.5 – 4 Hz; Theta, 4.0 – 7 Hz; Gamma, 35.0 – 100.0 Hz). qEEG values are spectral power (uV2) log transformed before analysis and averaged over 30-minute intervals, expressed as means +/− SEM, and compared with vehicle using a mixed-model ANOVA at each time point with random effects for subject and date within subject in the R statistical computing environment (cran.us.r-project.org; the R Foundation for Statistical Computing, Vienna, Austria) using a linear mixed effects model for significance testing.

Compound | KON (association constant) (Orexin 2 receptor) | Kd (Orexin 2 receptor) | T1/2 OFF (half-life off-rates) (Orexin 2 receptor) | T1/2 ON (binding half-life) (Orexin 2 receptor) | koff (Orexin 2 receptor) | Cognitive assessment in DMS and SCRT tasks within 2 h following treatment (rhesus monkeys [6]) | other results
CNC(=O)[C@@H](c1ccccc1)N1CCc2cc(OC)c(OC)cc2[C@@H]1CCc1ccc(C(F)(F)F)cc1 [Almorexant] | 1.58e+07 mol⁻¹ min⁻¹ | 48 pM | 4.47 h | 162^a min | 4.49e-05 s⁻¹ | – | OX2R occupancy at 10 h (OX2R [1]): remained elevated; Levels within the CSF at 10 h [2]: undetectable; Duration of active wake reduction following treatment (rats; dosed during active phase): up to 7.5 h; Duration of active wake reduction following treatment (rats; inactive-phase treatment): up to 11 h; OX2R occupancy above which significant changes appeared (OX2R [3]): above 89%; OX2R occupancy at which efficacy was not observed (OX2R [3]): 78%
CN1C(=O)CN=C(c2ccccc2)c2cc(Cl)ccc21 [Diazepam] | – | – | – | – | – | substantial deficits | Next-day recognition memory (DMS), 14 h after dosing (rhesus monkeys [4]): impacted memory and attention; Next-day recognition memory (DMS), 14 h after dosing (rhesus monkeys [4]; listed as diazepam): Significant deficits; Next-day attention (SCRT, correct responses to shortest cues), 16 h after dosing (rhesus monkeys [5]): impacted memory and attention; Next-day attention (SCRT, correct responses to shortest cues), 16 h after dosing (rhesus monkeys [5]; listed as diazepam): significant deficits; Active wake late in the inactive phase and next morning (residual sleep effect) (rhesus monkeys [7]): promoted sleep throughout the normal resting period and into the subsequent active phase; Active wake late in the inactive phase and next morning (residual sleep effect) (rhesus monkeys [7]; listed as diazepam): significantly attenu-ated active wake
Cc1ccc(-c2ncccn2)c(C(=O)N2C[C@H](COc3ccc(F)cn3)CC[C@H]2C)c1 [MK-6096, [(2R,5R)-5-{[(5-fluoropyridin-2-yl)oxy]methyl}-2-methylpiperidin-1-yl][5-methyl-2-(pyrimidin-2-yl)phenyl]methanone] | 1.69e+07 mol⁻¹ min⁻¹ | 338 pM | 1.97 h | 62.9 min | 0.000113 s⁻¹ | – | –
Cc1nc(C(=O)N2CCCC[C@H]2CNC(=O)c2cccc3occc23)c(-c2ccc(F)cc2)s1 [SB-649868] | 2.56e+07 mol⁻¹ min⁻¹ | 163 pM | 0.95 h | 37.0 min | 0.00021 s⁻¹ | – | –
Cc1ccc(-c2nc3ccc(C)cn3c2CC(=O)N(C)C)cc1 [Zolpidem] | – | – | – | – | – | substantial deficits | –

Reference: article PMC3765993, “The duration of sleep promoting efficacy by dual orexin receptor antagonists is dependent upon receptor occupancy threshold” (BMC Neuroscience, 2013)
